Results taken from patent US8680012B2, “4-phenyl-pyrane-3,5-diones,4-phenyl-thiopyrane-3,6-diones and cyclohexanetriones as novel herbicides” (Syngenta Crop Protection LLC, priority 2006, dated 2014).

Assays:
Assay type in all cases: in vivo
[1] = test system: Alopecurus myosuroides (ALOMY); assay: Example B pre-emergence herbicidal activity, glasshouse pot test; conditions: 312 h, evaluated after 13 days, read-out: Pre-emergence activity ALOMY (100=total damage to plant; 0=no damage to plant); for pest or weed control at 1000 g/ha: rate 1000 g/ha; for pest or weed control at 250 g/ha: rate 250 g/ha
How it was run: (§1)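 Damage rating, 0–100, at 13 d after application. Spray solution: a.i. in acetone/water (50:50), 0.5% Tween 20. Applied 1 d after sowing or at 8 d growth; pots held at 24/16 °C, 14 h light, 65% humidity.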

[2] = test system: Amaranthus retroflexus (AMARE); assay: as above; conditions: 312 h, evaluated after 13 days, read-out: Pre-emergence activity AMARE (100=total damage to plant; 0=no damage to plant); for pest or weed control at 1000 g/ha: rate 1000 g/ha; for pest or weed control at 250 g/ha: rate 250 g/ha
How it was run: as §1

Avena fatua (AVEFA) [3] = assay: as above; conditions: 312 h, evaluated after 13 days, read-out: Pre-emergence activity AVEFA (100=total damage to plant; 0=no damage to plant); for pest or weed control at 1000 g/ha: rate 1000 g/ha; for pest or weed control at 250 g/ha: rate 250 g/ha
How it was run: as §1

[4] = test system: Echinochloa crus-galli (ECHCG); assay: as above; conditions: 312 h, evaluated after 13 days, read-out: Pre-emergence activity ECHCG (100=total damage to plant; 0=no damage to plant); for pest or weed control at 1000 g/ha: rate 1000 g/ha; for pest or weed control at 250 g/ha: rate 250 g/ha
How it was run: as §1

Setaria faberi (SETFA) [5] = assay: as above; conditions: 312 h, evaluated after 13 days, read-out: Pre-emergence activity SETFA (100=total damage to plant; 0=no damage to plant); for pest or weed control at 1000 g/ha: rate 1000 g/ha; for pest or weed control at 250 g/ha: rate 250 g/ha
How it was run: as §1

Solanum nigrum (SOLNI) [6] = assay: as above; conditions: 312 h, rate 1000 g/ha, evaluated after 13 days, read-out: Pre-emergence activity SOLNI (100=total damage to plant; 0=no damage to plant)
How it was run: as §1

[7] = test system: Alopecurus myosuroides (ALOMY); assay: Example B post-emergence herbicidal activity, glasshouse pot test; conditions: 312 h, evaluated after 13 days, read-out: Post-emergence activity ALOMY (100=total damage to plant; 0=no damage to plant); for pest or weed control at 1000 g/ha: rate 1000 g/ha; for pest or weed control at 250 g/ha: rate 250 g/ha
How it was run: as §1

[8] = test system: Amaranthus retroflexus (AMARE); assay: as above; conditions: 312 h, evaluated after 13 days, read-out: Post-emergence activity AMARE (100=total damage to plant; 0=no damage to plant); for pest or weed control at 1000 g/ha: rate 1000 g/ha; for pest or weed control at 250 g/ha: rate 250 g/ha
How it was run: as §1

Avena fatua (AVEFA) [9] = assay: as above; conditions: 312 h, evaluated after 13 days, read-out: Post-emergence activity AVEFA (100=total damage to plant; 0=no damage to plant); for pest or weed control at 1000 g/ha: rate 1000 g/ha; for pest or weed control at 250 g/ha: rate 250 g/ha
How it was run: as §1

[10] = test system: Echinochloa crus-galli (ECHCG); assay: as above; conditions: 312 h, evaluated after 13 days, read-out: Post-emergence activity ECHCG (100=total damage to plant; 0=no damage to plant); for pest or weed control at 1000 g/ha: rate 1000 g/ha; for pest or weed control at 250 g/ha: rate 250 g/ha
How it was run: as §1

Setaria faberi (SETFA) [11] = assay: as above; conditions: 312 h, evaluated after 13 days, read-out: Post-emergence activity SETFA (100=total damage to plant; 0=no damage to plant); for pest or weed control at 1000 g/ha: rate 1000 g/ha; for pest or weed control at 250 g/ha: rate 250 g/ha
How it was run: as §1

Solanum nigrum (SOLNI) [12] = assay: as above; conditions: 312 h, rate 1000 g/ha, evaluated after 13 days, read-out: Post-emergence activity SOLNI (100=total damage to plant; 0=no damage to plant)
How it was run: as §1

| Compound | pest or weed control at 1000 g/ha [1] | pest or weed control at 1000 g/ha [2] | pest or weed control at 1000 g/ha (Avena fatua (AVEFA) [3]) | pest or weed control at 1000 g/ha [4] | pest or weed control at 1000 g/ha (Setaria faberi (SETFA) [5]) | pest or weed control at 1000 g/ha (Solanum nigrum (SOLNI) [6]) | pest or weed control at 1000 g/ha [7] | pest or weed control at 1000 g/ha [8] | pest or weed control at 1000 g/ha (Avena fatua (AVEFA) [9]) | pest or weed control at 1000 g/ha [10] | pest or weed control at 1000 g/ha (Setaria faberi (SETFA) [11]) | pest or weed control at 1000 g/ha (Solanum nigrum (SOLNI) [12]) | pest or weed control at 250 g/ha [1] | pest or weed control at 250 g/ha [2] | pest or weed control at 250 g/ha (Avena fatua (AVEFA) [3]) | pest or weed control at 250 g/ha [4] | pest or weed control at 250 g/ha (Setaria faberi (SETFA) [5]) | pest or weed control at 250 g/ha [7] | pest or weed control at 250 g/ha [8] | pest or weed control at 250 g/ha (Avena fatua (AVEFA) [9]) | also measured |
| --- | --- | --- | --- | --- | --- | --- | --- | --- | --- | --- | --- | --- | --- | --- | --- | --- | --- | --- | --- | --- | --- |
| CCc1ccc(-c2ccc(Cl)cc2)cc1C1=C(O)C(C)(C)OC(C)C1=O (single isomer, unassigned) [Compound A-26] | 80% | 0% | 80% | 100% | 100% | 0% | 100% | 100% | 100% | 100% | 100% | 50% | – | – | – | – | – | – | – | – | – |
| CCc1ccc(-c2ccc(Cl)cc2)cc1C1=C(O)[C@@]2(C)CC[C@H](O2)C1=O (single isomer, unassigned) [Compound A-29] | 90% | 0% | 80% | 100% | 100% | 0% | 100% | 40% | 100% | 100% | 100% | 60% | – | – | – | – | – | – | – | – | – |
| Cc1ccc(-c2ccc(Cl)cc2)cc1C1=C(O)[C@@]2(C)CC[C@H](O2)C1=O (single isomer, unassigned) [Compound A-30] | 80% | 0% | 70% | 100% | 100% | 0% | 90% | 70% | 100% | 100% | 100% | 70% | – | – | – | – | – | – | – | – | – |
| Cc1ccc(-c2ccc(Cl)cc2)cc1C1=C(O)C2(CCOCC2)OCC1=O (single isomer, unassigned) [Compound A-37] | 40% | 0% | 20% | 30% | 20% | 0% | 70% | 0% | 30% | 90% | 80% | 70% | – | – | – | – | – | – | – | – | – |
| Cc1ccc(-c2cccc(C(F)(F)F)c2)cc1C1=C(O)C(C)(C)OC(C)(C)C1=O [Compound A-15] | 50% | 100% | 50% | 100% | 50% | 100% | 10% | 90% | 20% | 50% | 10% | 10% | – | – | – | – | – | – | – | – | – |
| Cc1ccc(-c2ccc(Oc3ccccc3)cc2)cc1C1=C(O)C(C)(C)OC(C)(C)C1=O [Compound A-16] | 30% | 0% | 20% | 100% | 100% | 0% | 30% | 40% | 30% | 100% | 100% | 10% | – | – | – | – | – | – | – | – | – |
| Cc1ccc(-c2ccc(C#N)cc2)cc1C1=C(O)C(C)(C)OC(C)(C)C1=O [Compound A-20] | 90% | 0% | 60% | 100% | 100% | 40% | 90% | 20% | 90% | 100% | 100% | 80% | – | – | – | – | – | – | – | – | – |
| CCc1ccc(-c2ccc(Cl)nc2)cc1C1=C(OC(C)=O)C(C)(C)OC(C)(C)C1=O [Compound D-22] | – | – | – | – | – | – | – | – | – | – | – | – | 60% | 0% | 50% | 100% | 100% | 90% | 0% | 100% | pest or weed control at 250 g/ha [10]: 100%; pest or weed control at 250 g/ha (Setaria faberi (SETFA) [11]): 100% |
| CCc1ccc(-c2ccc(Cl)cc2Cl)cc1C1=C(OC(C)=O)C(C)(C)OC(C)(C)C1=O [Compound D-23] | – | – | – | – | – | – | – | – | – | – | – | – | 0% | 0% | 0% | 100% | 90% | 0% | 0% | 0% | pest or weed control at 250 g/ha [10]: 100%; pest or weed control at 250 g/ha (Setaria faberi (SETFA) [11]): 90% |
| CCc1ccc(-c2ccc(Cl)cc2Cl)cc1C1=C(OC(=O)COC)C(C)(C)OC(C)(C)C1=O [Compound D-24] | – | – | – | – | – | – | – | – | – | – | – | – | 0% | 20% | 0% | 100% | 90% | 0% | 0% | 20% | pest or weed control at 250 g/ha [10]: 100%; pest or weed control at 250 g/ha (Setaria faberi (SETFA) [11]): 100% |
| CCC(=O)OC1=C(c2cc(-c3ccc(Cl)cc3Cl)ccc2CC)C(=O)C(C)(C)OC1(C)C [Compound D-25] | – | – | – | – | – | – | – | – | – | – | – | – | 20% | 0% | 0% | 90% | 90% | 0% | 0% | 20% | pest or weed control at 250 g/ha [10]: 90%; pest or weed control at 250 g/ha (Setaria faberi (SETFA) [11]): 90% |
| CC(=O)OC1=C(c2cc(-c3ccc(Cl)cn3)ccc2C)C(=O)C(C)(C)OC1(C)C [Compound D-28] | – | – | – | – | – | – | – | – | – | – | – | – | 30% | 0% | 40% | 20% | 80% | 80% | 0% | 50% | pest or weed control at 250 g/ha [10]: 90%; pest or weed control at 250 g/ha (Setaria faberi (SETFA) [11]): 80% |
| CCc1ccc(-n2cnc(Cl)c2Cl)cc1C1=C(OC(=O)OC)C(C)(C)OC(C)(C)C1=O [Compound D-32] | – | – | – | – | – | – | – | – | – | – | – | – | 20% | 0% | 80% | 60% | 80% | 50% | 0% | 70% | pest or weed control at 250 g/ha [10]: 90%; pest or weed control at 250 g/ha (Setaria faberi (SETFA) [11]): 80% |
